This is an account of results in patent publication US3974140A, “Ureidoacetamido-penicillins” (Bayer Aktiengesellschaft, priority 1970, dated 1976).

Common to all, as to assay: MIC, liquid medium test tube series dilution test
Assay [1] has as its system Klebsiella 63. It counts as cell-based. The following applies: Klebsiella 63, 24 hours, 37°C. How it is done:
(§1) The chemotherapeutic activity of the new penicillins was tested in vivo and in vitro. The in vitro inhibition values (MIC = minimum inhibition concentration (see Tables 1 and 2) were determined in a liquid medium in the test tube series dilution test, with readings being taken after 24 hours' incubation at 37°C. The MIC is indicated by the non-turbid test tube in the dilution series. A complete medium of the following composition was used as the nutrient medium:
(§2) The figures quoted in the Examples for the effectiveness against certain bacteria (units/ml) are minimum inhibitory concentrations in the test tube series dilution test after 24 hours' incubation.

Assay [2] relates to E. coli C 165. It counts as cell-based. The following applies: E. coli C 165, 24 hours, 37°C. The procedure: as §1, §2
Assay [3] relates to E. coli 14. It counts as cell-based. To be noted: E. coli 14, 24 hours, 37°C. How it is done: as §1, §2
The subject of assay [4] is E. coli 183/58. The assay is classed as cell-based. To be noted: E. coli 183/58, 24 hours, 37°C. The procedure:
as §1, §2

In assay [5] the test system is Klebsiella K 10. It counts as cell-based. The following applies: Klebsiella K 10, 24 hours, 37°C. How it is done:
as §1, §2

Assay [6] relates to E. coli A 261. It counts as cell-based. The following applies: E. coli A 261, 24 hours, 37°C. How it is done:
as §1, §2

Assay [7] relates to Streptoc. faec. ATCC 9790. It counts as cell-based. The following applies: Strep. faec. (Enterococcus) ATCC 9790, 24 hours, 37°C. How it is done:
as §1, §2

For assay [8], the system named is Staph. aureus 133. The assay is classed as cell-based, Staphylococcus aureus. The following applies: Staph. aureus 133, 24 hours, 37°C. The procedure: as §1, §2
The subject of assay [9] is Psdm. aerug. Walter. The assay is classed as cell-based, Pseudomonas aerug. To be noted: 24 hours, 37°C. How it is done: as §1, §2
Assay [10] relates to Psdm. aerug. Bonn. The assay is classed as cell-based, Pseudomonas aerug. The following applies: 24 hours, 37°C. How it is done: as §1, §2
Assay [11] deals with Proteus vulg. 1017. The assay is classed as cell-based, Proteus vulgaris. The following applies: Proteus vulg. 1017, 24 hours, 37°C. How it is done:
as §1, §2

The test system of assay [12] is Proteus vulg. 3400. It counts as cell-based, Proteus vulgaris. To be noted: Proteus vulg. 3400, 24 hours, 37°C. The procedure:
as §1, §2

In the case of `CN(C(=O)CCCCl)C(=O)N[C@@H](C(=O)N[C@@H]1C(=O)N2[C@@H]1SC(C)(C)[C@@H]2C(=O)O)c1ccccc1` [Example 88, Sodium D(-)-α-(3-γ-chlorobutyryl-3-methyl-ureido)-benzylpenicillin], the MIC came to 25 units/ml in assay [1]; 6.25 units/ml in assay [2]; 1.56 units/ml in assay [3]; 3.12 units/ml in [4]; 50 units/ml in assay [5]; 400 units/ml in assay [6]. Moreover, the MIC in [7] is reported as 50 units/ml; in assay [8] it was less than 0.78 units/ml; in assay [9], 50 units/ml; in assay [10], 25 units/ml; in assay [11], 12.5 units/ml; in assay [12], 6.25 units/ml.

Turning to `CN(C(=O)N[C@@H](C(=O)N[C@@H]1C(=O)N2[C@@H]1SC(C)(C)[C@@H]2C(=O)O)c1ccccc1)C(=O)c1ccc(Cl)cc1Cl` [Example 142, Sodium D(-)-α-(3-[2,4-dichlorobenzoyl]-3-methyl-ureido)-benzylpenicillin], the MIC in assay [1] came to 25 units/ml; in assay [2] it was 3.1 units/ml; in assay [3], 0.8 units/ml; in assay [4], 1.6 units/ml; in assay [5], 12.5 units/ml; in [6], 50 units/ml. The MIC in assay [7] was 25 units/ml; in [8], less than 0.8 units/ml; in assay [9], 12.5 units/ml; in [10], 25 units/ml; in [11] it was 3.1 units/ml; in [12], 12.5 units/ml.

As for `COC(=O)N(C)C(=O)NC(C(=O)N[C@@H]1C(=O)N2[C@@H]1SC(C)(C)[C@@H]2C(=O)O)c1c(Cl)cccc1Cl` (stereo partly drawn) [Example 9, Sodium D,L-α-(3-methoxycarbonyl-3-methyl-ureido)-2,6-dichlorobenzylpenicillin], the MIC in [1] is reported as greater than 500 units/ml; in assay [2], 100-500 units/ml; in assay [3] it was 20-100 units/ml; in assay [4], 100-500 units/ml; in assay [5] it was greater than 500 units/ml; in [6], greater than 500 units/ml. In addition, the MIC in [7] is ~ 500 units/ml; in assay [8], 0.8-4 units/ml; in assay [9] it was greater than 500 units/ml; in assay [10], greater than 500 units/ml; in assay [11] it was greater than 500 units/ml; in assay [12], greater than 500 units/ml.

With `CN(C(=O)NC(C(=O)N[C@@H]1C(=O)N2[C@@H]1SC(C)(C)[C@@H]2C(=O)O)c1c(Cl)cccc1Cl)C(=O)c1ccccc1` (stereo partly drawn) [Example 32, Sodium α-(3-benzoyl-3-methyl-ureido)-2,6-dichlorobenzyl-penicillin], the MIC result in assay [1] is given as “approx. 100 units/ml”; in [2], 20-100 units/ml; in assay [3], “approx. 20 units/ml”; in assay [4] it was 20-100 units/ml; in assay [5], 100-500 units/ml; in assay [6], greater than 500 units/ml. The MIC in [7] was 100-500 units/ml; in assay [8], roughly 0.8 units/ml; in [9], 100-500 units/ml; in assay [10], 100-500 units/ml; in assay [11], “approx. 100 units/ml”; in assay [12], 100-500 units/ml.

As for `CC(=O)N(C(=O)N[C@@H](C(=O)N[C@@H]1C(=O)N2[C@@H]1SC(C)(C)[C@@H]2C(=O)O)c1ccccc1)c1ccccc1` [Example 130, Sodium D(-)-α-(3-acetyl-3-phenyl-ureido)-benzylpenicillin], the MIC was 50 units/ml in [1]; 100 units/ml in assay [2]; 12.5 units/ml in [3]; 100 units/ml in assay [4]; 25 units/ml in assay [5]; greater than 400 units/ml in assay [6]. Moreover, the MIC in assay [7] is on record as 50 units/ml; in [8], less than 0.8 units/ml; in assay [9], 200 units/ml; in assay [10], 200 units/ml; in [11], 200 units/ml; in assay [12] it was 400 units/ml.

Regarding `C=CCN(C(C)=O)C(=O)N[C@@H](C(=O)N[C@@H]1C(=O)N2[C@@H]1SC(C)(C)[C@@H]2C(=O)O)c1ccccc1` [Example 1, Sodium D(-)-α-(3-acetyl-3-allylureido)-benzylpenicillin], the MIC was 50 units/ml in [1]; 100 units/ml in assay [2]; 25 units/ml in assay [3]; 100 units/ml in [4]; 50 units/ml in assay [5]; greater than 400 units/ml in assay [6]. The MIC is 200 units/ml in assay [7]; 1.6 units/ml in [8]; 200 units/ml in assay [9]; 400 units/ml in assay [10]; 400 units/ml in assay [11]; 200 units/ml in assay [12].

With `Cc1ccc(C(=O)N(C)C(=O)N[C@@H](C(=O)N[C@@H]2C(=O)N3[C@@H]2SC(C)(C)[C@@H]3C(=O)O)c2ccccc2)cc1[N+](=O)[O-]` [Example 70, Sodium D(-)-α-(3-[m-nitro-p-methyl]-benzoyl-3-methyl-ureido)-benzylpenicillin], the MIC in assay [1] came out at 12.5 units/ml; in [2], 6.25 units/ml; in assay [3], 3.12 units/ml; in [4] it was 3.12 units/ml; in assay [5] it was 25 units/ml; in assay [6] it was 200 units/ml. Also, the MIC is listed as 100 units/ml in assay [7]; less than 0.78 units/ml in [8]; 100 units/ml in [9]; 12.5 units/ml in assay [10]; 12.5 units/ml in assay [11]; 12.5 units/ml in assay [12].

For `CCCCCCCCCCCCCCCCCC(=O)N(C)C(=O)N[C@@H](C(=O)N[C@@H]1C(=O)N2[C@@H]1SC(C)(C)[C@@H]2C(=O)O)c1ccccc1` [Example 71, Sodium D(-)-α-(3-stearinoyl-3-methyl-ureido)-benzylpenicillin], the MIC in [1], in assay [2], in [3], in [4], in [5] and in assay [6] was greater than 400 units/ml throughout. Besides, the MIC is reported as greater than 400 units/ml in [7]; 200 units/ml in assay [8]; 400 units/ml in [9]; greater than 400 units/ml in [10]; greater than 400 units/ml in assay [11]; greater than 400 units/ml in [12].

`CN(C(=O)CCC(Cl)(Cl)Cl)C(=O)N[C@@H](C(=O)N[C@@H]1C(=O)N2[C@@H]1SC(C)(C)[C@@H]2C(=O)O)c1ccccc1` [Example 89, Sodium (-)-α-(3-γ-trichlorobutyryl-3-methyl-ureido)-benzylpenicillin]: the MIC is on record as 12.5 units/ml in [1]; 6.25 units/ml in assay [2]; 1.56 units/ml in assay [3]; 1.56 units/ml in assay [4]; 25 units/ml in assay [5]; 400 units/ml in [6]. In addition, the MIC in [7] was 100 units/ml; in assay [8], less than 0.78 units/ml; in [9], 50 units/ml; in [10], 25 units/ml; in [11] it was 3.12 units/ml; in [12] it was 12.5 units/ml.

For the molecule `Cc1ccc(C(NC(=O)N(C)C(=O)c2ccccc2F)C(=O)N[C@@H]2C(=O)N3[C@@H]2SC(C)(C)[C@@H]3C(=O)O)cc1` (stereo partly drawn) [Example 44, Sodium α-(3-o-fluorobenzoyl-3-methyl-ureido)-α-p-tolyl-methylpenicillin], the MIC is given as 50 units/ml in [1]; 25 units/ml in [2]; 6.25 units/ml in [3]; 25 units/ml in assay [4]; 50 units/ml in assay [5]; 400 units/ml in assay [6]. Moreover, the MIC stood at 100 units/ml in [7]; 1.6 units/ml in [8]; 50 units/ml in assay [9]; 50 units/ml in assay [10]; 50 units/ml in assay [11]; 25 units/ml in assay [12].
